Data on 3 molecules can be found in US20240181005A1, “COMPOSITIONS, SYSTEMS, AND METHODS FOR GENERATING GENE-EDITED CELLS” (CellScript, LLC, priority 2020, published 2024).

The subject of data set [1] is XMEN CD34^+ HSPCs. The data set is described as follows: Targeted insertion (TI) of MAGT1 cDNA by ddPCR in gene-edited CD34+ HSPCs. It is filed as cell-based, human. The note with it: ddPCR 48-72 h post-EP, input pre-transplant. From the text: (A) Location of the 10 candidate sgRNAs targeting MAGT1 gene transcription start site (TSS). Each sgRNA (sg) is represented as a 20-bp sequence (light grey or green) associated with the 3-bp PAM sequence (darker color). (B) Evaluation of the percentage of cutting activity by TIDE assay after gDNA extraction from untreated versus Cas9/sgRNA treated HD CD34+ cells at 2-5 days post electroporation, sequencing of Exon 1 and comparison of the sequences using TIDE software (n=1-5 independent experiments). (C) Design of the rAAV6-MAGT1 donor. (D) Molecular analysis showing the percentage of targeted insertion in gene-edited XMEN CD34+ cells using gene editing enhancers as described. gDNA was extracted at 48 h-72 h post-EP and insertion of the MAGT1 cDNA donor was quantified by ddPCR (n=3-11 independent experiments). (E) Viability determined by blue trypan exclusion in untreated Naive and AAV-MAGT1-treated XMEN HSPCs at day 2 post-EP (n=1-7 independent experiments). (F) Representative analysis of the phenotype of CD34+ cells at day 2 post-EP. […]
(§1) Targeted insertion (TI) of MAGT1 cDNA was quantified by digital droplet PCR (ddPCR) using one primer located upstream of the LHA (5′-[…]−3′, SEQ ID NO:42) the second primer (5′-[…]-3′, SEQ ID NO:43) inside the cDNA and a probe (5′-[…]-3′, SEQ ID NO:44).

Data set [2] deals with XMEN CD34^+ HSPCs. The data set is described as follows: Viability of gene-edited CD34+ HSPCs by trypan blue exclusion. In kind it is cell-based, human. The note with it: day 2 post-EP. From the text:
(A) Location of the 10 candidate sgRNAs targeting MAGT1 gene transcription start site (TSS). Each sgRNA (sg) is represented as a 20-bp sequence (light grey or green) associated with the 3-bp PAM sequence (darker color). (B) Evaluation of the percentage of cutting activity by TIDE assay after gDNA extraction from untreated versus Cas9/sgRNA treated HD CD34+ cells at 2-5 days post electroporation, sequencing of Exon 1 and comparison of the sequences using TIDE software (n=1-5 independent experiments). (C) Design of the rAAV6-MAGT1 donor. (D) Molecular analysis showing the percentage of targeted insertion in gene-edited XMEN CD34+ cells using gene editing enhancers as described. gDNA was extracted at 48 h-72 h post-EP and insertion of the MAGT1 cDNA donor was quantified by ddPCR (n=3-11 independent experiments). (E) Viability determined by blue trypan exclusion in untreated Naive and AAV-MAGT1-treated XMEN HSPCs at day 2 post-EP (n=1-7 independent experiments). (F) Representative analysis of the phenotype of CD34+ cells at day 2 post-EP. For all the graphs, data are shown as mean±standard deviation (SD); ANOVA one-way test and Tukey's post hoc multiple comparisons test, *p<0.05, *p<0.01, ***p<0.001, ****p<0.0001.
Cryopreserved CD34^+ HSPCs were thawed (day 0) and cultured in StemSpan SFEM II medium (STEMCELL™ Technologies) supplemented with 100 ng/mL stem cell factor (SCF), Flt3 ligand, thrombopoietin (Peprotech), 0.75 μM of StemRegenin-1 (STEMCELL™ Technologies) and 35 nM of UM171 (STEMCELL™ Technologies) for 2 days (37). […] At 48 h post-EP, the cells were harvested and counted by hemocytometer with trypan blue to determine viability before their use for molecular analysis, phenotypic analysis by flow cytometry, CFU assay, T or NK cell differentiation or cryopreservation for transplant studies.

For data set [3], the system named is NK cells (CD3-CD56^+) differentiated from XMEN CD34^+ HSPCs. As to the kind of experiment: In vitro NK cell differentiation from gene-edited CD34+ cells: NKG2D expression and TI. In kind it is cell-based, human.
Text: (B) Dot plot showing the gating for NK cells (CD3-CD56+) and NKG2D expression after 35 days of in vitro NK cell differentiation from CD34+ cells; histogram on the right showing the percentage of CD34-derived NK cells in each condition (n=2-8 independent experiments). (C) NKG2D expression and (D) targeted integration in NK cells at day 35 of in vitro differentiation (n=2-8 independent experiments). (E) Cytotoxic activity of CD34+-differentiated NK cells against K562 cells at an E:T ratio of 2:1 (n=1-7 independent experiments). For all the graphs, data are shown as mean±SD; *p<0.05, *p<0.01, ***p<0.001, ****p<0.0001. (F) Correlation between the NKG2D expression (%) and the killing activity (%) in NK cells at day 35 was calculated using Spearman's correlation coefficient and two-tailed p-value (n=21 samples).
CD34^+ HSPCs were differentiated into NK cells in vitro using a protocol adapted from (47). 200,000 CD34^+ cells were resuspended in IMDM supplemented with 20% FBS and 50 μM BME containing 5 ng/mL rhIL-3 (first week only), 10 ng/mL IL-15, 20 ng/mL IL-7, 20 ng/mL SCF, 10 ng/mL Flt3L and 100 U/mL IL2 for 35 days. […]
as §1

Data set [4] concerns NSGS immunodeficient mice. The data set is described as follows: Transplantation of gene-edited XMEN CD34+ HSPCs into NSGS mice. It is filed as in vivo, mouse. Conditions: for post-transplant TI: ddPCR, human CD45+ cells from bone marrow, week 16.
Text: (A) Human engraftment measured by the presence of human CD45^+ cells by flow cytometry at week 16 in the peripheral blood, bone marrow, spleen and thymus of NSGS mice transplanted with HD (n=5 mice), untreated (n=12) or gene-edited XMEN CD34^+ HSCs (n=1 (−i53), n=8 (+i53), n=18 (+i53^+ GSE-CS56)). The dotted line indicates the threshold for engraftment at 0.2% hCD45^+ cells in the bone marrow. (B) Percentage of human engraftment (hCD45^+) measured after injection of XMEN HSPCs gene edited with increasing Multiplicity of Infection (MOIs) of AAV, in presence of i53 alone or i53 and GSE-CS56. (C) Immunophenotypic analysis of bone marrow at 16 weeks post-transplant by flow cytometry showing the percentages of CD34^+ cells, myeloid (CD33^+), lymphoid B (CD19^+) and T (CD3^+) after gating on the hCD45^+ population. (D and E) Restoration of NKG2D expression in NK cells from the spleen (D) and CD8^+ T cells from the peripheral blood, spleen and thymus (E) at week 16 post-transplant. For all the graphs, data are shown as mean±SD. (F and G) Targeted insertion quantified by ddPCR in human CD45^+ cells isolated from the bone marrow after gene editing with i53 (orange bar) or with i53 and GSE-CS56 (green bar) (F); or in the lymphoid T (CD3), myeloid (CD33/CD14) and lymphoid B (CD19) cells sorted from the spleen (G).
The use of triple transgenic immunodeficient mice NOD.Cg-Prkd^scid Il2rg^tm1Wjl Tg (NSG-SGM3 or NSGS) expressing human IL3, GM-CSF and SCF cytokines (30) (Stock No: 013062; The Jackson Laboratory) for transplantation studies was approved by NIAID Institutional Animal Care and Use Committee under the animal use protocol LCIM-1E. The conduct of these studies conforms to AAALAC International guidelines and all US federal regulations required for protection of research animals. Newborn mice (0-4 days old) were irradiated at 100 cGy and immediately intrahepatically injected (courtesy of Mara Pavel-Dinu) with 1-1.5×10^6 viable CD34^+ cells per mouse. Peripheral blood from tail vein was analyzed at weeks 12 and 16 after transplantation. At 16 weeks, mice were sacrificed, and bone marrow, spleen and thymus were harvested for analysis of engraftment, sorting or gDNA extraction as indicated. […]
as §1

Data set [5] concerns HSPCs. The note with it: HSPCs from patients with CGD, SCD, SCID-X1; cited from earlier work.
Data set [6] concerns HSPCs. The data set is described as follows: Innate immune, transcriptional and toxicity response of HSPCs to the mRNAs during gene editing.
For the next data set, the target named is T1, 53BP1 (Homo sapiens, UniProt Q12888).
T1 construct: endogenous in cells
Conditions: blocking 53BP1 tudor domain binding to H4K20me2; cited from earlier work.

The subject of the next data set is CD34^+ HSPCs. The data set is described as follows: CFSE proliferation assay. It is filed as cell-based, human. Conditions: CFSE stain day 1 post EP, flow cytometry day 6. From the text:
(A) Optimization of cutting activity (% indels) of various forms of Cas9 mRNA and at increasing concentration. Commercial Cas9 mRNA (MaxCyte, Mx) is used as control. (B) Evaluation of the glycerol concentration in the EP mix on viability and cutting activity at day 2 post EP. (C) Representative dot plots showing the immunophenotype analysis of HSPCs by flow cytometry at day 2 post EP. (D) Hematopoietic potential evaluated by the CFU assay at day 2 post-EP; Number of CFU colonies were counted after 14 days. (E) Measure of the proliferation index after staining HD HSPCs at day 1 post EP with CFSE dye and analysis of the proliferation by flow cytometry at day 6 post EP.
The following day after EP, CD34^+ cells were stained with CellTrace™ CFSE kit per manufacturer's instructions (ThermoFisher Scientific) and analyzed by flow cytometry 5 days later. Determination of the proliferation index was done using FlowJo software.
A general note: Flow cytometry measures light scatter and fluorescence of single cells or particles in a stream.

T1 sequence (Q12888 whole entry): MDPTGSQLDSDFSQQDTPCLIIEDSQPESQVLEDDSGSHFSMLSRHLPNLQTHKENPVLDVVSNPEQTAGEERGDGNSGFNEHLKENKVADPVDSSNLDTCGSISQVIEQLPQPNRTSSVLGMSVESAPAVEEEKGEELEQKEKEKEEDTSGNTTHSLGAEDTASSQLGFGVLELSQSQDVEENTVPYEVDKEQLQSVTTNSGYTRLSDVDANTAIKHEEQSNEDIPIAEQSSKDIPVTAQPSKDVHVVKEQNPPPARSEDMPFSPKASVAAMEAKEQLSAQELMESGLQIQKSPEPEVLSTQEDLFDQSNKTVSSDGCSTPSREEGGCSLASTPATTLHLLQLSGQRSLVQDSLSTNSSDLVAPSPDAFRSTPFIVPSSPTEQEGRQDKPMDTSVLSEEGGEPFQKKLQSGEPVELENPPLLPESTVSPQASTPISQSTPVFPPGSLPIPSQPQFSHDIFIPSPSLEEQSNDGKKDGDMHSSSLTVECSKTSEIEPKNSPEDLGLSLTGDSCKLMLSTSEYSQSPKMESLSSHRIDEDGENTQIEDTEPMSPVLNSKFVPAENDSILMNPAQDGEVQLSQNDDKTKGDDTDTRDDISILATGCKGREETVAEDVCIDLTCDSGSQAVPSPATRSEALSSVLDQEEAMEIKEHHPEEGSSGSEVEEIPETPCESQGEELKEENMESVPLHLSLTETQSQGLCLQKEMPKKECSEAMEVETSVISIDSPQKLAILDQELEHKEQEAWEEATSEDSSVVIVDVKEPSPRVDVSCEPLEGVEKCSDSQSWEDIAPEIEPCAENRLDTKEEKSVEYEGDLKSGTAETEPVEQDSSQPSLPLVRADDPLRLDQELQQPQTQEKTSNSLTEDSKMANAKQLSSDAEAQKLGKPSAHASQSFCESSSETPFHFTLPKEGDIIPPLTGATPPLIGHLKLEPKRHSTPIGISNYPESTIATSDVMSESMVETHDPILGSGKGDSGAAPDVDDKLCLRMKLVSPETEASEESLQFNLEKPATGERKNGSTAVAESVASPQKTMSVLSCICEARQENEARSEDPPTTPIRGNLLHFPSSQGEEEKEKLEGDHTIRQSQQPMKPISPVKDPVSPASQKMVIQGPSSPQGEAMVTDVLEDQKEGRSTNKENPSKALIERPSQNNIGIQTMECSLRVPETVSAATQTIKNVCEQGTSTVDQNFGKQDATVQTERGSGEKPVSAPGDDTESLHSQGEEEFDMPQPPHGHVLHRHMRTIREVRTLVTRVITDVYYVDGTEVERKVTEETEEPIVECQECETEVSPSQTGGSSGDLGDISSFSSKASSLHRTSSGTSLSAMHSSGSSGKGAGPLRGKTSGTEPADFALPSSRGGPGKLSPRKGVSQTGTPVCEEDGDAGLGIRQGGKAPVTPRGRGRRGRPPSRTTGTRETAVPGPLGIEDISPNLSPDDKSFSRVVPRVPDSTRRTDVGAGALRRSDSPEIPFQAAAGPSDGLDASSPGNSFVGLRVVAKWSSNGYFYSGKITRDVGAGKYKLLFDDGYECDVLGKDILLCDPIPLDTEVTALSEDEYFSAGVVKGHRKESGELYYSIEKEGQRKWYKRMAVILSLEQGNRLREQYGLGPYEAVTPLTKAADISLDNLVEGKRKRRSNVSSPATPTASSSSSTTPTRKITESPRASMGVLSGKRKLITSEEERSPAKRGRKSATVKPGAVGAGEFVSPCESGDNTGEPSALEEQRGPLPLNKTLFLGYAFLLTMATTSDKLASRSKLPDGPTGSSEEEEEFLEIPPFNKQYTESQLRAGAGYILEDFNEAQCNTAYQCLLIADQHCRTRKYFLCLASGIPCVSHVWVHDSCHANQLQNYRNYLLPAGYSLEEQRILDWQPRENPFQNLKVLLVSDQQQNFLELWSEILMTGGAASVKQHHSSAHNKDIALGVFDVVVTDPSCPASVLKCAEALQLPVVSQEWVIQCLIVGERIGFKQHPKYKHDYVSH

Take “i53 mRNA: pseudouridine-modified mRNA encoding i53, an inhibitor of 53BP1 (ubiquitin variant, SEQ ID NO:6)”: the “AAV-MAGT1 TI rates (targeted insertion)” value in the data set with XMEN CD34^+ HSPCs [1] is 50.0±18.2%. Also, the “viability of GE CD34+ HSPCs” value in the data set on XMEN CD34^+ HSPCs [2] was “decreased after gene editing, independently of i53”. For the same molecule, in data set [3] (day 35 of culture), the “NKG2D expression in in vitro differentiated NK cells” value is given as 26%. Further, the “molecular TI rates in NK cells” value in data set [3] (day 35 of in vitro differentiation, ddPCR) came to 34%. In data set [4], the “post-transplant TI” value came out at 54.5±18.3%. The “engraftment of human CD45+ cells in the BM” value in data set [4] (week 16, NSGS mice, bone marrow) came out at 11.03%. Besides, the “levels of HDR-mediated TI with AAV donors or gene correction with ssODN donors” value in the data set with HSPCs [5] is “above 60%”. Moreover, in the data set with HSPCs [6], the “upregulation of interferon or other cytokines or cellular stress genes, transcriptional repression, toxicity or loss of viability” value is on record as “not observed any significant upregulation”.
Consider “i53 protein: ubiquitin variant (SEQ ID NO:2) of Canny et al. that binds the tandem tudor domain of 53BP1”, for which, in the data set with 53BP1, the “increase of repair by HDR” value is on record as “about 2 fold”.

B1: GSE CS-56 mRNA: mRNA encoding a human TP53 genetic suppressor element, a dominant negative deletion mutant of TP53 (nucleic acid)
chain: GGGUAAUACAAGCUUGCUUGUUCUUUUUGCAGAAGCUCAGAAUAAACGCUCAACUUUGGCAGCCACCAUGGAUUGUCCUGGGAGAGACCGGCGCACAGAGGAAGAGAAUCUCCGCAAGAAAGGGGAGCCUCACCACGAGCUGCCCCCAGGGAGCACUAAGCGAGCACUGCCCAACAACACCAGCUCCUCUCCCCAGCCAAAGAAGAAACCACUGGAUGGAGAAUAUUUCACCCUUCAGAUCCGUGGGCGUGAGCGCUUCGAGAUGUUCCGAGAGCUGAAUGAGGCCUUGGAACUCAAGGAUGCCCAGGCUGGGAAGGAGCCAGGGGGGAGCAGGGCUCACUCCAGCCACCUGAAGUAGUGAUAUCACUAGUGACUGACUAGGAUCUGGUUACCACUAAACCAGCCUCAAGAACACCCGAAUGGAGUCUCUAAGCUACAUAAUACCAACUUACACUUUACAAAAUGUUGUCCCCCAAAAUGUAGCCAUUCGUAUCUGCUCCUAAUAAAAAGAAAGUUUCUUCACAUUCUGCUAGCUCUAG
modifications: pseudouridine; (1)..(539) U=Pseudouridine
For the molecule B1, the “AAV-MAGT1 TI rates (targeted insertion)” value in the data set on XMEN CD34^+ HSPCs [1] worked out at 62.3±18%. Moreover, the “viability of GE CD34+ HSPCs” value in the data set with XMEN CD34^+ HSPCs [2] is given as “significantly increased”; with XMEN CD34^+ HSPCs [2] (listed as GSE-CS56 mRNA), “rescue the cell viability”. Also, in the data set with CD34^+ HSPCs, the proliferative capacity entry is recorded as “better preserved”. Further, the “post-transplant TI” value in data set [4] is “slightly improved”. Also, the “percentages of NKG2D-expressing CD8+ T cells” value in data set [4] (week 16 post-transplant, PB, spleen, thymus) is “slightly improved”. In addition, in the data set on HSPCs [6], the “upregulation of interferon or other cytokines or cellular stress genes, transcriptional repression, toxicity or loss of viability” value is listed as “not observed any significant upregulation”.
